We go through three compounds from patent US20250082633A1, “COMPOUNDS AND METHODS FOR MODULATING SPLICING” (REMIX THERAPEUTICS INC., priority 2021, published 2025).

Type in all cases: cell-based
One test concerns MYB mRNA. As to the kind of experiment: RT-qPCR splicing assay, MYB canonical (CJ) and alternative (AJ) junction mRNA. As to conditions: Homo sapiens; for IC50: read-out: MYB CJ IC50; for AC50: increase in alternative junction mRNA, read-out: MYB AJ AC50. On the procedure: (§1) Compounds described herein were used to modulate RNA transcript abundance in cells. The expression of a target mRNA was measured by detecting the formation of an exon-exon junction in the canonical transcript (CJ). A compound mediated exon-inclusion event was detected by observing an increase in formation of a new junction with an alternative exon (AJ). Real-time qPCR assays were used to detect these splicing switches and interrogate the potency of various compounds towards different target genes. A high-throughput real time quantitative PCR (RT-qPCR) assay was developed to measure these two isoforms of the mRNA (CJ and AJ) for exemplary genes, such as HTT, SMN2, and MYB, together with a control housekeeping gene, GAPDH or GUSB or PPIA, used for normalization. Briefly, the A673 or K562 cell line was treated with various compounds described herein (e.g., compounds of Formula (I)). After treatment, the levels of the HTT, MYB, or SMN2 mRNA targets were determined from each sample of cell lysate by cDNA synthesis followed by qPCR.
(§2) • Cells-to-CT 1-step kit: ThermoFisher A25602, Cells-to-CT lysis reagent: ThermoFisher 4391851C, TaqMan™ Fast Virus 1-Step Master Mix: ThermoFisher 4444436 • GAPDH: VIC-PL, ThermoFisher 4326317E (Assay: Hs99999905_m1)—used for K562/suspension cell lines • GUSB: VIC-PL, ThermoFisher 4326320E (Assay: Hs99999908_m1)—used for K562/suspension cell lines • PPIA: VIC-PL, ThermoFisher 4326316E (Assay: Hs99999904_m1)—used for A673/adherent cell lines
(§3) The A673 cell line was cultured in DMEM with 10% FBS. Cells were diluted with full growth media and plated in a 96-well plate (15,000 cells in 100 ul media per well). The plate was incubated at 37° C. with 5% CO2 for 24 hours to allow cells to adhere. An 11-point 3-fold serial dilution of the compounds was made in DMSO then diluted in media in an intermediate plate. Compounds were transferred from the intermediate plate to the cell plate with the top dose at a final concentration of 10 uM in the well. Final DMSO concentration was kept at or below 0.25%. The cell plate was returned to the incubator at 37° C. with 5% CO2 for an additional 24 hours.
(§4) The K562 cell line was cultured in IMDM with 10% FBS. For K562, cells were diluted with full growth media and plated in either a 96-well plate (50,000 cells in 50 uL media per well) or a 384-well plate (8,000-40,000 cells in 45 uL media per well). An 11-point 3-fold serial dilution of the compounds were made in DMSO then diluted in media in an intermediate plate. Compound was transferred from the intermediate plate to the cell plate with the top dose at a final concentration of 10 uM in the well. Final DMSO concentration was kept at or below 0.25%. Final volume was 100 uL for 96-well plate and 50 uL for 384-well plate. The cell plate was then placed in an incubator at 37° C. with 5% CO2 for 24 hours.
(§5) The cells were then gently washed with 50 uL-100 uL cold PBS before proceeding to addition of lysis buffer. 30 uL-50 μL of room temperature lysis buffer with DNAse I (and optionally RNAsin) was added to each well. Cells were shaken/mixed thoroughly at room temperature for 5-10 minutes for lysis to take place and then 3 uL-5 μL of room temperature stop solution was added and wells were shaken/mixed again. After 2-5 minutes, the cell lysate plate was transferred to ice for RT-qPCR reaction setup. The lysates could also be frozen at −80° C. for later use.
(§6) In some cases, a direct lysis buffer was used. An appropriate volume of 3× lysis buffer (10 mM Tris, 150 mM NaCl, 1.5%-2.5% Igepal and 0.1-1 U/uL RNAsin, pH 7.4) was directly added to either K562 or A673 cells in media and mixed by pipetting 3 times. The plates were then incubated at room temperature with shaking/rocking for 20-50 minutes to allow for lysis to take place. After this time, the cell lysate plate was transferred to ice to set up for the RT-qPCR reactions. The lysates could also be frozen at −80° C. for later use. […]
A general note: Real-time PCR tracks product formation cycle by cycle.

Another test deals with Target C. As to the kind of experiment: RT-qPCR splicing assay, gene panel, Target C canonical junction (CJ) mRNA. As to conditions: Homo sapiens; decrease in CJ mRNA levels; larger panel of genes; Table 3; read-out: Target C CJ IC50. On the procedure:
as §1, §3, §4, §5
(§7) In some cases, a direct lysis buffer was used. An appropriate volume of 3× lysis buffer (10 mM Tris, 150 mM NaCl, 1.5%-2.5% Igepal and 0.1-1 U/uL RNAsin, pH 7.4) was directly added to either K562 or A673 cells in media and mixed by pipetting 3 times. The plates were then incubated at room temperature with shaking/rocking for 20-50 minutes to allow for lysis to take place. After this time, the cell lysate plate was transferred to ice to set up for the RT-qPCR reactions. The lysates could also be frozen at −80° C. for later use.
(§8) To set up 10 uL RT-qPCR reactions, cell lysates were transferred to 384-well qPCR plates containing the master mix according to the table below. The plates were sealed, gently vortexed, and spun down before the run. The volumes were adjusted accordingly in some instances where the reaction was carried in 20 μL. The table below summarizes the components of the RT-qPCR reactions:
(§9) The RT-qPCR reaction was performed using a QuantStudio (ThermoFisher) under the following fast cycling conditions. […]

The subject of the next test is SMN2 mRNA. As to the kind of experiment: RT-qPCR splicing assay, gene panel, SMN2 canonical junction (CJ) mRNA. As to conditions: Homo sapiens; decrease in CJ mRNA levels; larger panel of genes; Table 3; read-out: SMN2 CJ IC50. As to the method: as §1, §3, §4, §5, §7, §8, §9
In another test the test system is HTT mRNA. As to the kind of experiment: RT-qPCR splicing assay, HTT canonical (CJ) and alternative (AJ) junction mRNA. As to conditions: Homo sapiens; for IC50: read-out: HTT CJ IC50; for AC50: increase in alternative junction mRNA, read-out: HTT AJ AC50. On the procedure:
as §1, §2, §3, §4, §5, §6

The test system of a further test is K562 cells. Kind of test: Cell Titer Glo 2.0 cell viability assay. As to conditions: Homo sapiens, 500 cells/well, 72 hours. As to the method:
Compounds described herein were screened for toxicity in K562 (human chronic myelogenous leukemia) and SH-SY5Y (human neuroblastoma) cells using a Cell Titer Glo 2.0 assay. • Promega CellTiter-Glo® 2.0 Cell Viability Assay (cat #G9241) • Corning 384-well TC-treated microplates (cat #3570) Cells were plated at 500 cells/well (K562 cells) in 45 μL of IMDM supplemented with 10% FBS in a 384-well opaque plate. Wells containing only medium were used as a blank control. Test compounds (e.g., compounds of Formula (I), (II), or (III)) were first serially diluted in DMSO then diluted 1:100 with IMDM+10% FBS. The final concentration of DMSO was 0.1% in each well. The cells were incubated for 72 hours at 37° C. and 5% CO2 before assaying with Cell Titer Glo 2.0 reagent.
(In ATP-based viability assays light output follows the ATP content of the culture.)

Where [1] appears, read: decrease in CJ mRNA levels, larger panel of genes, Table 3.
Where [2] appears, read: decrease in canonical junction mRNA, A673 or K562 cells, 24 hours treatment, Table 2.
[3] abbreviates: A673 or K562 cells, 24 hours treatment, Table 2.

Read-outs that look alike come from different tables or passages of the source.

As a reminder, the IC50 is the point on the concentration scale where inhibition reaches its midpoint. One may read the AC50 as the concentration giving half of the maximal activity seen. Broadly, the GI50 is the concentration giving 50% growth inhibition. Low values mean more potent growth inhibition, high ones less potent growth inhibition.

Regarding `Cc1cn2nc(-c3cc(F)c4nn(C5CCNC6(CC6)C5)cc4c3)cc2c(C)n1` (stereo not drawn) [Compound 204, 2-[2-(4-azaspiro[2.5]octan-7-yl)-7-fluoro-indazol-5-yl]-4,6-dimethyl-pyrazolo[1,5-a]pyrazine], the half-maximal inhibitory concentration (IC50) in the test on MYB mRNA (setting [1]) fell in the range of 1000 to 10000 nM; in the test on MYB mRNA (setting [2]), 1000 to 10000 nM; in the test on Target C, 100 to 1000 nM; in the test with SMN2 mRNA it was 100 to 1000 nM; with HTT mRNA (setting [1]), 100 to 1000 nM; with HTT mRNA (setting [2]) it was 100 to 1000 nM. For the same compound, the half-maximal activity concentration (AC50) is 1000 to 10000 nM in the test with MYB mRNA (setting [3]) and 100 to 1000 nM in the test with HTT mRNA (setting [3]). Moreover, in the test with K562 cells, the concentration for 50% growth inhibition (GI50) is 1000 to 10000 nM.

`Cc1cn2nc(-c3cc(F)c4nn([C@H]5CCN(C)C[C@@H]5F)cc4c3)cc(C)c2n1` [Compound 196, 6-[7-fluoro-2-[(3S,4S)-3-fluoro-1-methyl-4-piperidyl]indazol-5-yl]-2,8-dimethyl-imidazo[1,2-b]pyridazine]: the IC50 is over 10000 nM in the test with MYB mRNA (setting [1]); over 10000 nM with MYB mRNA (setting [2]); over 10000 nM with Target C; 100 to 1000 nM in the test with SMN2 mRNA; 1000 to 10000 nM in the test on HTT mRNA (setting [1]); 1000 to 10000 nM in the test with HTT mRNA (setting [2]). In addition, the AC50 in the test on MYB mRNA (setting [3]) and with HTT mRNA (setting [3]) was 1000 to 10000 nM throughout. This compound also displayed a GI50 with K562 cells of over 10000 nM.

Turning to `Cc1cn2nc(-c3ccc4nn(C5CCNC6(CC6)C5)cc4n3)cc(C)c2n1` (stereo not drawn) [Compound 201, 6-[2-(4-azaspiro[2.5]octan-7-yl)pyrazolo[4,3-b]pyridine-5-yl]-2,8-dimethyl-imidazo[1,2-b]pyridazine], the IC50 in the test with MYB mRNA (setting [1]) lay within 1000 to 10000 nM; in the test on MYB mRNA (setting [2]), 1000 to 10000 nM; in the test on Target C, 1000 to 10000 nM; with SMN2 mRNA, 100 to 1000 nM; in the test on HTT mRNA (setting [1]), 100 to 1000 nM; in the test on HTT mRNA (setting [2]), 100 to 1000 nM. Moreover, the AC50 in the test on MYB mRNA (setting [3]) and with HTT mRNA (setting [3]) was 1000 to 10000 nM each time. The compound further displayed a GI50 in the test on K562 cells of 1000 to 10000 nM.
